The values below come from paper PMC5571211 (Scientific Reports, 2017).

The subject of assay [1] is 5-LOX product formation (FLAP) in human monocytes. The assay is described as follows: 5-LOX product formation in intact human monocytes stimulated with Ca2+-ionophore A23187. Type of assay: cell-based. Conditions: Monocyte, 5 h, read-out: IC50, formation of LTB4 and its isomers and of 5-H(p)ETE (5-LOX product formation). The protocol:
Peripheral blood (University Hospital Jena, Germany) was collected from fasted healthy adult donors that were informed about the aim of the study and gave written consent. The protocols for experiments with neutrophils or monocytes were approved by the ethical commission of the Friedrich-Schiller-University Jena (approval number 4292-12/14). All methods were performed in accordance with the relevant guidelines and regulations. Leukocyte concentrates were obtained by centrifugation (4000 × g, 20 min, 20 °C) of heparinized blood preparations. Neutrophils and monocytes were immediately isolated as described before. In brief, leukocyte concentrates were subjected to dextran sedimentation and centrifuged on lymphocyte separation medium (LSM 1077, PAA, Coelbe, Germany). For isolation of pelleted neutrophils, remaining erythrocytes were removed by hypotonic lysis, washed twice with ice-cold PBS and resuspended in medium to a cell density described for the respective experiments. […]
Human recombinant 5-LOX was expressed in E.coli BL21 transformed with pT3-5-LOX plasmid at 30 °C overnight as described before. […] After elution with methanol, samples were analyzed by RP-HPLC using a C-18 Radial-PAK column (Waters, Eschborn, Germany). […]

Assay [2] concerns zymosan-induced peritonitis. The assay is described as follows: Zymosan-induced peritonitis mouse model. In kind it is in vivo. The following applies: for myeloperoxidase activity / myeloperoxidase activity, % of vehicle control / leukocyte recruitment: 4 h after zymosan; for vascular permeability, % of vehicle control: 30 min after zymosan. On the procedure:
The animal studies are reported in accordance with the ARRIVE guidelines for reporting animal research. Male CD-1 mice (33–39 g, 8–9 weeks, Charles River Laboratories, Calco, Italy) were housed in a controlled environment (21 ± 2 °C) and provided with standard rodent chow and water ad libitum. Mice received a standard diet containing 5.7% fat, 18.9% protein and 57.3% carbohydrate (Global Diet 2018, ENVIGO, Italy). The fatty acid composition was according to Matias et al.[67].
Prior to experiments, all mice were allowed to acclimate for 5 days and kept at 12 h light–dark schedule, in which experiments were performed during the light phase. Animal care was in compliance with Italian regulations on protection of animals used for experimental and other scientific purpose (Ministerial Decree 116/92) and with the European Economic Community regulations (Official Journal of E.C. L 358/1 12/18/1986). Animal studies were approved by the local ethical committee of the University of Naples Federico II on 27 February 2014 (approval number 2014/18760). […] Zymosan (Sigma, Milan, Italy) was prepared and injected i.p. as a final suspension (2 mg/mL) in 0.9% saline solution after boiling, centrifugation and sonication. Peritoneal lavage (3 mL of cold PBS) was performed after CO2-euthanasia at indicated time points, followed by 60 sec of gentle manual massage. Two mL of exudates were collected and infiltrated cells were determined using a Burker chamber and vital trypan blue staining. Pelleted samples (18,000 × g, 5 min, 4 °C) were frozen (−80 °C) and assayed for myeloperoxidase (MPO) activity (pellet) or LTC4 and LTB4 formation (supernatant), respectively.
MPO of neutrophils was examined as follows: pellets from exudates were resuspended in PBS (50 mM, pH 6) containing 0.5% hexadecyltrimethyl-ammonium bromide and sonicated, followed by 3 freeze-thawing cycles and a final sonication. Supernatants of centrifuged samples (18,000 × g, 30 min) were added to a 96-well plate and reactions were initiated by addition of PBS (50 mM, pH 6) containing o-dianisidine (0.167 mg/mL) and hydrogen peroxide (0.0005%). Absorbance was monitored in the kinetic mode (Biorad Imark microplate) and levels of MPO were determined using a calibration curve with human neutrophils as reference standard. MPO levels were expressed as units MPO per mouse. LTC4 and LTB4 formation within the supernatants were determined by EIA (Enzo Life Sciences International Inc., Lörrach, Germany) according to manufacturer’s protocol.
Vascular permeability was assessed according to a previous report. Briefly, 0.3 mL of 0.9% saline solution supplemented with Evans blue dye (40 mg/kg) was injected intravenously (i.v.) into the caudal vein followed by immediate peritonitis induction (using zymosan). After 30 min, peritoneal lavage exudates of CO2-euthanized were collected as described above. Absorbance of the centrifuged supernatants (3,000 × g, 5 min) was measured at 650 nm (Beckman Coulter DU730).

For a further assay, the target named is T1, 5-LOX/FLAP complex (Homo sapiens, UniProt P20292).
T1 construct: endogenous in cells; host or cells: freshly isolated human monocytes (immunofluorescence also in neutrophils)
T1 sequence (P20292 1-161): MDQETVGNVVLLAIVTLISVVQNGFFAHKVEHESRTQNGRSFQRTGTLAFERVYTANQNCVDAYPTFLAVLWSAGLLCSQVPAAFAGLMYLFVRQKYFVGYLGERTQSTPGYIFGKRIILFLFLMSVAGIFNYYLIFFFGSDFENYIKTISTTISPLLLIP
The assay can be described thus: Proximity ligation assay of 5-LOX/FLAP complex assembly in monocytes. In kind it is cell-based. Conditions: diflapolin 1 µM, MK886 0.3 µM, zileuton 3 µM. On the procedure:
In situ protein interaction of 5-LOX and FLAP was analyzed by proximity ligation assay as described before[37] and referring to the manufacturer’s protocol. In brief, freshly isolated monocytes were treated as described for IF above. Overnight incubations with primary antibodies were then treated for 1 h (37 °C) with oligonucleotide-labeled specific secondary antibodies (PLA probes anti-mouse MINUS and anti-rabbit PLUS). Formation of circled DNA sequences was induced by addition of ligase and oligonucleotide mixture (30 min at 37 °C). Rolling-circle-amplification of newly generated DNA template was performed (90 min, 37 °C) including hybridization of fluorescently-labeled oligonucleotides within the formed DNA strands, resulting in visualization of protein-protein interactions recognized as magenta-stained dots. Nuclear DNA staining with DAPI and image acquisition was performed as described above. Overview images were obtained using a Plan Neofluar 40/1.30 Oil (DIC III) objective (Carl Zeiss).

[3] abbreviates: mice, 1 mg/kg i.p. 30 min before zymosan.

Each structure is given as a SMILES string. Read-outs that look alike come from different tables or passages of the source.

Take `CC(C)c1ccc2c(c1)c(SC(C)(C)C)c(CC(C)(C)C(=O)O)n2Cc1ccc(Cl)cc1` [MK886, 3-[1-(4-chlorobenzyl)-3-t-butyl-thio-5-isopropylindol-2-yl]-2,2 - dimethylpropanoic acid]: the IC50 – broadly, the midpoint of a concentration-inhibition curve – in assay [1] (intact human monocytes, Ca2+-ionophore A23187, no AA supplementation) is approximately 3 nM. In assay [2] (setting [3]), the LTB4 peritoneal levels entry is reported as “comparable to the effect of MK886” and the LTC4 peritoneal levels result is reported as “comparable to the effect of MK886”. In assay [2] (mice, 1 mg/kg i.p.), the myeloperoxidase activity was found to be 0.72 ± 0.13 U/mL and the “myeloperoxidase activity, % of vehicle control” value is 58.5 ± 10.6 % of vehicle control. In assay [2] (mice, 3 mg/kg i.p.), the “vascular permeability, % of vehicle control” value is 48.6 ± 3.2 % of vehicle control. Moreover, the leukocyte recruitment entry in assay [2] (mice, MK886 i.p.) is on record as “block of leukocyte recruitment”. In addition, the “5-LOX/FLAP complex assembly (PLA)” value at 5-LOX/FLAP complex was “comparable effects”.
As to `Cc1cc(OCc2nc3ccccc3s2)ccc1NC(=O)Nc1ccc(Cl)c(Cl)c1` [diflapolin, N-[4-(benzothiazol-2-ylmethoxy)-2-methylphenyl]-N′-(3,4-dichlorophenyl)urea], the half-maximal inhibitory concentration (IC50) in assay [1] (Homo sapiens) turned out to be 30 nM. Further, in assay [2] (mice, 10 mg/kg i.p.), the “vascular permeability, % of vehicle control” value is 55.7 ± 14.4 % of vehicle control; the myeloperoxidase activity is 0.65 ± 0.15 U/mL; the “myeloperoxidase activity, % of vehicle control” value is on record as 52.8 ± 12.2 % of vehicle control. Besides, the LTC4 peritoneal levels result in assay [2] (mice, 1, 3 and 10 mg/kg i.p. 30 min before zymosan, analysed 30 min after zymosan) was “significant reduction”. Also, the LTB4 peritoneal levels result in assay [2] (mice, 1, 3 and 10 mg/kg i.p. 30 min before zymosan, analysed 4 h after zymosan) is recorded as “significant reduction”. In addition, the leukocyte recruitment entry in assay [2] (mice, 1, 3 and 10 mg/kg i.p., dose-dependent) is “block of leukocyte recruitment”.
